Test results taken from patent US12404232B2, “Compounds and compositions for intracellular delivery of therapeutic agents” (ModernaTX, Inc., priority 2015, dated 2025).

Tests used:
[1] = tested on: mice; assay: Luc expression (total flux) after intramuscular administration; format: in vivo; conditions: 6 hours after intramuscular administration, Luc mRNA and H10 mRNA
[2] = tested on: rat; assay: Clinical chemistry and hematology in rat after intravenous administration; format: in vivo; design: unit not given here; conditions: 2 mpk, 48 h post dose
Experimental: Sample formulations of nanoparticle compositions including different lipids were administered intravenously to rat at a dose of 2 mpk. The expression of various clinical markers was evaluated at 48 h post dose and compared to that induced by administration of MC3 formulations or phosphate buffered saline (PBS).
Table 19 summarizes the hEPO expression, IP-10 induction, liver and spleen levels, and alanine aminotransferase (ALT) and aspartate aminotransferase (AST) measured upon intravenous administration of formulations including Compounds 48, 49, and 50 to rat at 0.2 and 2 mpk and hEPO mRNA. hEPO concentrations were measured 6 hours after administration, while cytokine induction and liver and spleen levels were measured 48 hours after administration. hEPO and IP-10 concentrations are presented in pg/ml, while liver levels are provided in ng/g. ALT and AST levels are presented in international units.

[3] = Particle size and polydispersity index of nanoparticle compositions (Zetasizer Nano ZS); format: physicochemical
Summary of the method: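 Particle size and PDI by Zetasizer Nano ZS dynamic light scattering in 1×PBS. Lipid nanoparticles carried mRNA (luciferase or hEPO) with ionizable lipid:DSPC:cholesterol:PEG-DMG at 50:10:38.5:1.5 mol %.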

[4] = tested on: Cynomolgus monkeys; assay: Anti-HA (anti-hemagglutinin) antibody expression in Cynomolgus monkeys after intravenous infusion; format: in vivo; conditions: i.v. infusion 60 minutes
Experimental: Results of hEPO expression studies were validated using a standard MC3 formulation and a nanoparticle composition containing Compound 18 including an mRNA encoding an anti-hemagglutinin (anti-HA) antibody. Cynomolgus monkeys were administered a single dose of 0.1 mpk or 0.3 mpk of a nanoparticle composition containing Compound 18 (see Table 33; prepared according to Example 2) including an mRNA encoding anti-HA antibody via intravenous infusion for 60 minutes.

[5] = hEPO mRNA, lipid:DSPC:Chol:PEG-DMG (50:10:38.5:1.5) (Table 10)
[6] = nanoparticle composition lipid:DSPC:cholesterol:PEG-DMG 50:10:38.5:1.5 mol %, mRNA encoding Luc or hEPO (Table 1A)

SMILES | Total flux (p/s) 0.001 mpk Dose [1] | Total flux (p/s) 0.01 mpk Dose [1] | Alanine aminotransferase (Concentration) [2] | Aspartate aminotransferase (Concentration) [2] | Lymphocytes (Concentration) [2] | Monocytes (Concentration) [2] | Neutrophils (Concentration) [2] | Size (nm) ([3]; formulated with hEPO mRNA (Table 1B)) | Size (nm) [3, 5] | Size (nm) [3, 6] | AUC ([4]; dose 0.1 mpk) | AUC ([4]; dose 0.3 mpk) | Diameter (nm) ([3]; mRNA encoding anti-HA antibody (Table 33)) | PDI ([3]; nanoparticle composition 50:10:38.5:1.5 mol % (Table 1A))
CCCCCCCCCCCOC(=O)CCCCCN(CCO)CCCCCCCC(=O)OC(CCCCCCCC)CCCCCCCC [Compound 25, Heptadecan-9-yl 8-((2-hydroxyethyl)(6-oxo-6-(undecyloxy)hexyl)amino)octanoate] | 3.53E+06 p/s | 9.96E+07 p/s | 52 | 124.5 | 15924 | 2122 | 1998 |  |  |  |  |  |  | 
CCCCCC=CCC=CCCCCCCCCC(CCCCCCCCC=CCC=CCCCCC)OC(=O)CCCN(C)C (centres unmarked) [MC3, heptatriaconta-6,9,28,31-tetraen-19-yl 4-(dimethylamino)butanoate, reference compound] | 2.76E+06 p/s | 3.68E+07 p/s | 339 | 325 | 19976 | 1429 | 4962.5 | 57.7 nm | 73.7 nm | 79.7 nm | 77.05 µg·h/mL | 235.7 µg·h/mL |  | 
CCCCCCCCCOC(=O)CCCCCCCN(CCO)CCCCCCCC(=O)OC(CCCCCCCC)CCCCCCCC [Compound 18, Heptadecan-9-yl 8-((2-hydroxyethyl)(8-(nonyloxy)-8-oxooctyl)amino)octanoate] |  | 8.84E+07 p/s |  |  |  |  |  |  | 78.6 nm | 86.2 nm | 354.3 µg·h/mL | 1055 µg·h/mL | 76.8 nm | 0.042
